Laboratory results: paper PMC9583845, “Characterization of the chicken melanocortin 5 receptor and its potential role in regulating hepatic glucolipid metabolism” (Frontiers in Physiology, 2022)
“Also recorded” adds a separate entry of the source.

How the values were obtained:
[1] = tested on: intracellular cAMP / CREB; conditions: ref Herzig et al., 2001; Noriega et al., 2011; cited from earlier work
Description: Like its mammalian counterparts, numerous putative transcription factor binding sites were found in the upstream of the MC5R transcription start site. According to reports, Foxo4 may bind to the ...

[2] = tested on: primary chicken hepatocytes; assay: Glucose production from primary cultured chicken hepatocytes; assay type: cell-based; conditions: primary chicken hepatocytes; 100 nM for 30 or 60 min, or 0.1–100 nM for 60 min; gluconeogenic substrates 20 mM lactate, 2 mM pyruvate; four independent experiments; Figures 7A,B
Protocol: (§1) To evaluate the effect of ACTH1-39 on chicken liver, the chicken hepatocytes were prepared and maintained as a monolayer culture. Briefly, one-month-old male chicken hepatocytes were isolated by perfusion of a liver with Ca^2+-free KRB buffer to remove blood cells, and being digested with 0.25% collagenase-I for 10 min. Hepatocytes were obtained following filtering and washing using M199 medium. Then the hepatocytes were plated in a Corning CellBIND 48-well microplate (Corning, NY, cat. no.3338) with M199 medium containing 100 U/ml penicillin and […] streptomycin (Gibco), 5 μg/ml bovine insulin (Sigma), and 5% FBS at 37°C in a 5% CO2 atmosphere. To adhere to the wall, the cells were incubated on the 48-well plate for 4 h.
Glucose production from primary cultured chicken hepatocytes was measured as previously described ([Collins et al., 2006]). Briefly, cells were washed three times with warm phosphate-buffered saline (PBS) to remove glucose, followed by treatment with 100 nM (or different concentration gradients) chicken ATCH1-39 for 30 min or 60 min in glucose-free medium containing gluconeogenic substrates (20 mM sodium lactate and 2 mM sodium pyruvate). Glucose concentration was determined with a glucose assay kit (Applygen, Beijing, China, catalog no. E1011). Briefly, the 5 µl medium was added into 195 µl reagent and incubated for 20 min at 37°C. Absorbance in 550 nm was measured in a standard glucose solution.

[3] = tested on: MC5R mRNA, primary chicken hepatocytes; assay: MC5R mRNA in primary chicken hepatocytes, RT-qPCR; assay type: cell-based; conditions: 6 h
Protocol: as §1, with “h. For quantitative real-time PCR, primary cultured chicken hepatocytes were treated with various concentrations of ACTH1-39 (or other composition) at 37°C for 6 h. The relative amount of mRNA was calculated using the comparative Ct method. Chicken β-actin gene was used as the reference gene. Amplification of specific transcripts was confirmed by analyzing the melting curve profile performed at the end of each run and by determining the size of the PCR products using agarose electrophoresis and ethidium bromide staining.” for “h.”

Substance: glucagon: chicken glucagon; induce cAMP elevation in a dose-dependent way
- intracellular cAMP accumulation and CREB activation [1]: enhance the intracellular cAMP accumulation and activate CREB
- glucose production (in words) [2]: induction of gluconeogenesis
- increase in MC5R mRNA abundance ([3]; glucagon 10–100 nM, N = 4, Figure 6E): 3.5 fold
- MC5R mRNA abundance (in words) ([3]; primary chicken hepatocytes, N = 4, vs β-actin, Figures 6C-E): increased hepatic MC5R mRNA abundance; also recorded: enhance the expression of MC5R in cultured hepatocytes in a dose-dependent manner
